Measurements as given in patent US7723328B2, “Methods of facilitating cell survival using neurotrophin mimetics” (The University of North Carolina at Chapel Hill, priority 2005, dated 2010).
Entries after “also recorded” stand apart in the source; their conditions may differ.

Key:
[1] = test system: E17 hippocampal neurons; assay: Aβ-induced death of hippocampal neurons; format: cell-based; conditions: for protection against Aβ1-42-induced death: NGF at 100 pg/ml
Experimental: Using previously well established protocols, Aβ was preincubated for 3 days in water to allow formation of oligomers. E17 hippocampal neurons were incubated for 5 days to allow for maturation prior to addition of Aβ with test compounds.

[2] = test system: hippocampal neurons; assay: Hippocampal neuron survival with signaling pathway inhibitors; format: cell-based, mouse; conditions: BDNF/NGF 25 ng/ml, compounds 5 nM, 48 h; for effect of PD98059 (ERK inhibitor) on survival promoted by the substance: PD98059 50 μM
Experimental: (§1) Hippocampal neurons were prepared from E16-17 mouse embryos as previously described (Yang. T. et al. (2003) J Neurosci 23, 3353-3363). […] For studies employing p75^NTR+/+ and p75^NTR−/− neurons, mice carrying a mutation in exon 3 of the p75^NTR gene (Lee, K. F. et al. (1992) Cell 69, 737-749) were bred onto a B6 congenic background (>10 B6 backcrosses).
(§2) After 48 hours in culture, cell survival was assessed as previously described (Longo, F. M., Manthorpe. M., Xie. Y. M., Varon, S. (1997) J Neurosci Res 48, 1-17) using a combination of standard morphological criteria along with visual determination of whether a given cell converted MTT to its blue formazan product. The number of surviving neurons was determined by counting the total number of cells in each well that were both morphologically intact and filed with blue product (Longo F. M., Manthorpe. M., Xie, Y. M., Varon, S. (1997) J Neurosci Res 48, 1-17). For each neurotrophin or compound concentration, duplicate wells were counted and the resulting values averaged. Activity of each compound was confirmed by blinded counts. Counts were normalized to survival achieved with 25 ng/ml BDNF or to baseline survival. Fitting of dose-responsive curves was performed with Sigmaplot obtained from SYSTAT Software Inc. (Richmond, Calif., United States of America).
(§3) For all studies applying signaling inhibitors, p75^NTR antibodies or p75^NTR−/− neurons, survival was assessed at 48 hours.

[3] = test system: TrkA-Fc; assay: NGF/TrkA-Fc binding by NGF ELISA; conditions: up to 10,000 nM compound
Experimental: (§4) Briefly, 96-well plates were incubated with 0.1 pmol (at 1 nM) of p75/Fc or TrkA/Fc recombinant protein obtained from R&D System (Minneapolis, Minn., United States of America) overnight at 4° C. followed by incubation with blocking buffer for 1 hour at room temperature. […] Plates were then washed five times with Tris-buffered saline (TBS) containing 0.05% Tween-20 and incubated with anti-NGF rabbit polyclonal antibody overnight at 4° C. Following five washes with TBS, wells were incubated for 2.5 hours at room temperature with anti-rabbit IgG HRP conjugate and washed five times. 3,3′,5,5′-tetramethyl-benzidine substrate was added and the optical density measured at 450 nm.

[4] = target: T1, p75^NTR (Homo sapiens, UniProt P08138); assay: proNGF binding to p75NTR by ELISA; conditions: 100 ng/ml proNGF
T1 construct: purchased R&D Systems
Experimental: as §4

[5] = test system: E16-17 mouse hippocampal neurons; assay: Hippocampal neuron survival (morphology plus MTT conversion); format: cell-based; conditions: for neurotrophic activity (neuron survival response): 48 h, counts normalized to 25 ng/ml BDNF or baseline, up to 5 nM
Experimental: as §1, §2

[6] = target: T2, p75^NTR-Fc (Homo sapiens, UniProt P08138); assay: NGF/p75NTR-Fc binding by NGF ELISA, Gaddum/Schild fit
T2 construct: purchased R&D Systems
Experimental: as §4
A regression analysis of NGF-p75^NTR binding in the presence of the p75-binding compounds was performed. The data was fit using the Nonlinear Regression module of Sigmaplot, to a modification of the Gaddum/Schild equation (adapted from Motulsky, H. J., and Christopoulos. A. (2003) A Practical Guide to Curve Fitting, 2nd edn. (San Diego, Calif., GraphPad Software, Inc.): […]

[7] = test system: AKT; assay: AKT activation western blot in hippocampal cultures; format: cell-based, mouse
Experimental: (§5) For assays of Trk, AKT, NFκB, and ERK activation, hippocampal neurons derived from E16-17 mice were cultured in poly-L-lysine coated six-well plates (Corning, Inc., Corning, N.Y., United States of America) in DMEM containing 10% FBS, followed by incubation in serum-free DMEM for 2 hours before addition of neurotrophins or compounds. At the indicated time points, neurons were harvested in lysis buffer consisting of: 20 mM Tris, pH 8.0, 137 mM NaCl, 1% Igepal CA-630, 10% glycerol, 1 mM PMSF, 10 μg/ml aprotinin, 1 μg/ml leupeptin, 500 μM orthovanadate (Zhou, J., Valletta, J. S., Grimes, M. L., Mobley, W. C. (1995) J Neurochem 65, 1146-1156).
(§6) Lysates were centrifuged, the supernatant collected, and protein concentrations determined using the BCA Protein Assay Reagent obtained from Pierce (Rockford, Ill., United States of America). Western blots were performed as described previously (Yang, T. et al. (2003) J Neurosci 23, 3353-3363). Western blot signals were detected using the ECL Chemiluminescence System obtained by Amersham (Piscataway, N.J., United States of America) (Yang, T. et al. (2003) J Neurosci 23, 3353-3363).

[8] = test system: mature oligodendrocytes; assay: Oligodendrocyte cell death assay (MBP/TUNEL) with or without proNGF; format: cell-based, rat; conditions: for promotion of oligodendrocyte cell death by compound alone: absence of proNGF
Experimental: Cortical oligondendrocytes from rat pups were prepared as previously described (Yoon et al. (1998) J Neurosci 18, 3273-3281, Harrington, A. W., Kim, J. Y., Yoon, S. O. (2002) J Neurosci 22, 156-166). Cells were treated with recombinant, cleavage-resistant proNGF at 0.05 nM (2.8 ng/ml). Controls were treated with equivalent volumes of proNGF purification buffer containing 350 mM imidazole. 24 hours after treatment, the cells were fixed and processed for MBP and TUNEL staining as previously described (Beattie, M. S. et al. (2002) Neuron 36, 375-386). 200-250 cells were counted per well, for a minimum of 600 cells per experimental condition.

[9] = test system: NFκB-p65; assay: NFκB-p65 phosphorylation western blot in hippocampal cultures; format: cell-based, mouse
Experimental: as §5, §6

[10] = test system: p75^NTR−/− cells; assay: Survival of p75NTR+/+ versus p75NTR-/- hippocampal neurons; format: cell-based, mouse; conditions: neurotrophins 1.8 nM, compounds 5 nM
Experimental: as §1, §2, §3

[11] = test system: hippocampal neurons; assay: Hippocampal neuron survival with p75NTR antisera (antibody inhibition); format: cell-based, mouse; conditions: antiserum 1:100, 48 h
Experimental: as §1, §2, §3

[12] = test system: chicken DRG neuronal; assay: Chicken DRG neuronal survival assay; format: cell-based; conditions: preliminary screening
[13] = target: T3, p75^NTR-expressing 3T3 cells (Homo sapiens, UniProt P08138); assay: p75NTR antibody (Ab 9651) competition on 3T3 cells, western blot; format: binding; conditions: 100 nM compound, 90 min, 4° C.
T3 construct: host or cells: NIH3T3 fibroblasts
T3 sequence (P08138 29-427): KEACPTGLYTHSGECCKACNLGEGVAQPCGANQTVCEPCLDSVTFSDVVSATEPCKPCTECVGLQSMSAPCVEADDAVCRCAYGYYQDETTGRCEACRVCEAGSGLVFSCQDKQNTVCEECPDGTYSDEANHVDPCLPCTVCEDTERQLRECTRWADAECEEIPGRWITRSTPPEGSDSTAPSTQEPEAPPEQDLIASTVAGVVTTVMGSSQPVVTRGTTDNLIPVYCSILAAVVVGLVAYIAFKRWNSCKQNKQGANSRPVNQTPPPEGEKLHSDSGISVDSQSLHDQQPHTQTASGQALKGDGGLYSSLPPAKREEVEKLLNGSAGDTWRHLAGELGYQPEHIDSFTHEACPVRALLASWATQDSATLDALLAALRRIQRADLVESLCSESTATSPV
Experimental: NIH3T3 fibroblasts expressing either null vector or p75^NTR (Huang, C. S. et al. (1999) J Biol Chem 274, 36707-36714) were obtained from Dr. William Mobley (Stanford University, Calif., United States of America). Cells were grown in monolayers, harvested in PBS with 2 mM EDTA, pelleted, and resuspended in ice-cold DMEM HEPES with 1 mg/ml BSA. 6-9×10^6 cells from one confluent 6-well plate were used for each experimental point.
For binding analysis, p75^NTR antibody (1:100) was allowed to bind in the presence or absence of 100 nM p75-binding compounds for 90 minutes at 4° C. with gentle rotation, followed by four washes in PBS. The final cell pellet was resuspended in lysis buffer.
Western blots were performed as described above. To detect the presence of p75^NTR antibody, blots were probed with horseradish peroxidase-linked goat anti-rabbit IgG obtained from Amersham/Pharmacia Biotech (Piscataway, N.J., United States of America). Signals were detected by the ECL chemiluminescence system obtained from Amersham Biosciences (Piscataway, […]., United States of America). To control for variation in protein loading, the blot was stripped and reprobed with β-actin monoclonal antibody obtained from Sigma (St. Louis, Mo., United States of America).

[14] = test system: ERK42; assay: ERK42 activation western blot in hippocampal cultures; format: cell-based, mouse; conditions: compounds 20 nM, BDNF/NGF 50 ng/ml; 10 and 30 min
Experimental: as §5, §6

[15] = target: T4, TrkB (Mus musculus, UniProt P15209); assay: Trk Y490 phosphorylation western blot in hippocampal neuron cultures; format: cell-based; conditions: 10 or 30 minutes
T4 construct: endogenous in cells; host or cells: primary hippocampal neurons from E16-17 mouse embryos
Experimental: as §5, §6

[16] = compounds 20 nM, BDNF/NGF 50 ng/ml, 10 and 30 min

T2 sequence (P08138 with tags, fused parts or gaps limits assumed): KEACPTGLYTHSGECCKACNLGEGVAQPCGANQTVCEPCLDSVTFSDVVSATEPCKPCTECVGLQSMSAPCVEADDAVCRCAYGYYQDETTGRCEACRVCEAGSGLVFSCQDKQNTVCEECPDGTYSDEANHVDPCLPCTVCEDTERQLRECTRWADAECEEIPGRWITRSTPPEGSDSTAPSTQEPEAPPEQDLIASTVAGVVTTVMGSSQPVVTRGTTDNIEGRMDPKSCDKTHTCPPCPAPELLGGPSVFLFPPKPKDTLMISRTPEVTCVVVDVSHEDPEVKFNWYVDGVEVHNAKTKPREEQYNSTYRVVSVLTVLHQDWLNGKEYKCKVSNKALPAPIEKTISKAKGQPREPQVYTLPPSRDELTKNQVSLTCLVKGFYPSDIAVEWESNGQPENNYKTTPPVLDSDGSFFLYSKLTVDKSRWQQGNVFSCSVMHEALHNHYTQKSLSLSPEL
T1 sequence (P08138 with tags, fused parts or gaps limits assumed): as above
T4 sequence (P15209 32-821): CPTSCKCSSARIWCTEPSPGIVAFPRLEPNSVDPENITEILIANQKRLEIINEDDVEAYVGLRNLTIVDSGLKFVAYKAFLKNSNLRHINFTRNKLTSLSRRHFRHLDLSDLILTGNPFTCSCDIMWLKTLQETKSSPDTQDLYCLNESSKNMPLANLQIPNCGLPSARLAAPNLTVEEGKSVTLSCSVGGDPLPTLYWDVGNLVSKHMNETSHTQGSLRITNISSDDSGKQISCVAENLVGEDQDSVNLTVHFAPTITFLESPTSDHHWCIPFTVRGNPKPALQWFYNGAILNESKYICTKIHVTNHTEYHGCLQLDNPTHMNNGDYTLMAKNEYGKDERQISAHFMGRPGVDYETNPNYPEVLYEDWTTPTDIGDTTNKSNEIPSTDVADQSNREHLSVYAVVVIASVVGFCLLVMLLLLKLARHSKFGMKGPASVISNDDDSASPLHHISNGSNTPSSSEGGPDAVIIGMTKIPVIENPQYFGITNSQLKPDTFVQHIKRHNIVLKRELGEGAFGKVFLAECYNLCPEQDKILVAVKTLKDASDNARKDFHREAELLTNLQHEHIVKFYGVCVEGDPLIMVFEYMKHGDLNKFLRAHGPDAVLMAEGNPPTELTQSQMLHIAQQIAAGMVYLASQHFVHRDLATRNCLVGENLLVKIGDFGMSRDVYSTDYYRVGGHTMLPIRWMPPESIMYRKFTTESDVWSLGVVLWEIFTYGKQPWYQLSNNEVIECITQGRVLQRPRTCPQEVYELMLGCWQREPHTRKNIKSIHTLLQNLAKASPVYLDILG

Molecule: Cn1c(=O)c2c(ncn2CC(=O)NCc2ccco2)n(C)c1=O [Compound 6]
- protection against Aβ1-42-induced death ([1]; Aβ1-42 10 μM): failed to block

Molecule: CN(C)CCCNC(=O)Cn1cnc2c1c(=O)n(C)c(=O)n2C [Compound 3]
- effect of PD98059 (ERK inhibitor) on survival promoted by the substance [2]: no significant decrease
- effect of SN50 (NFκB translocation inhibitor) on survival promoted by the substance ([2]; SN50 2.5 μg/ml): significantly reduced
- effect on NGF binding to TrkA-Fc [3]: did not affect; also recorded: no compound effects up to 10,000 nM
- proNGF ELISA signal versus proNGF alone ([4]; P<0.01): significantly less than proNGF alone
- decrement of proNGF binding to p75NTR ([4]; at the highest concentration (range 1500 nM to 10,000 nM)): approximately 30%
- additive effect on survival with NGF ([5]; 5 nM compound along with 50 ng/ml NGF): no additive effect on survival
- compound concentration at which binding curve differs from 0 nM curve (P<0.0001) ([6]; ANOVA with post-hoc Bonferroni/Dunn): ≥ 125 nM
- Schild coefficient ([6]; Gaddum-Schild fit): 0.26 +/−0.01
- shift of the NGF/p75NTR-Fc binding curve ([6]; increasing compound concentrations): significantly to the right
- onset of AKT activation ([7]; 20 nM, relative to NGF): slower than that of NGF
- inhibition of proNGF-induced oligodendrocyte death ([8]; 2.8 ng/ml (0.05 nM) proNGF, 24 h): significantly inhibited; also recorded: blocked cell death
- promotion of oligodendrocyte cell death by compound alone ([8]; 24 h): did not promote cell death
- protection against Aβ1-42-induced death ([1]; Aβ1-42 10 μM): blocks Aβ-induced death with a dose-response effect
- EC50 ([1]; Hippocampal neuron, Aβ1-42 10 μM, read-out: EC50 for blocking Aβ-induced death): ~10 nM
- increase in NFκB-p65 phosphorylation ([9]; 20 nM): approximately 1.5 fold
- effect of p75NTR-deficiency on promotion of neuron survival by the substance [10]: completely inhibits
- effect of Ab 9651 on promotion of neuron survival by the substance [11]: completely blocked; also recorded: completely inhibits
- survival versus CM in the presence of Ab 9651 [11]: not significant

Molecule: N=C(N)NC(=N)NCCNC(=N)NC(=N)N [Compound 7]
- neurotrophic activity (neuron survival response) [5]: active
- activity in DRG neuronal survival [12]: active

Molecule: Aβ1-42: amyloid-β, preincubated for 3 days in water to allow formation of oligomers [reference compound]
- loss of neurons ([1]; Aβ1-42 10 μM or 30 μM, 3 day exposure, no compound): ~40%

Molecule: NCCNc1ccc([N+](=O)O)c(N2CCCCC2)c1 [Compound 1]
- neurotrophic activity (neuron survival response) [5]: active
- activity in DRG neuronal survival [12]: active

Molecule: CCN(CC)CCCNC(=O)Cn1cnc2c1c(=O)n(C)c(=O)n2C [Compound 5]
- effect on NGF binding to TrkA-Fc [3]: no significant effect up to 10,000 nM
- neurotrophic activity (neuron survival response) [5]: little or no neurotrophic activity; also recorded: no response
- oligodendrocyte survival with proNGF at 10 nM compound ([8]; 10 nM compound, proNGF present): appeared to decrease survival
- promotion of oligodendrocyte cell death by compound alone ([8]; 24 h): did not promote cell death
- protection against Aβ1-42-induced death ([1]; Aβ1-42 10 μM): failed to block
- NFκB-p65 activation [9, 16]: did not induce
- displacement of anti-p75NTR Ab 9651 [13]: no effect
- survival versus CM in the presence of Ab 9651 [11]: not significant

B1: BDNF: brain-derived neurotrophic factor from Sigma-Aldrich (protein, UniProt P23560 19-247, looked up)
Neurotrophic factor BDNF …: APMKEANIRGQGGLAYPGVRTHGTLESVNGPKAGSRGLTSLADTFEHVIEELLDEDQKVRPNEENNKDADLYTSRVMLSSQVPLEPPLLFLLEEYKNYLDAANMSMRVRRHSDPARRGELSVCDSISEWVTAADKKTAVDMSGGTVTVLEKVPVSKGQLKQYFYETKCNPMGYTKEGCRGIDKRHWNSQCRTTQSYVRALTMDSKKRIGWRFIRIDTSCVCTLTIKRGR
- effect of PD98059 (ERK inhibitor) on survival promoted by the substance [2]: significantly decreased; also recorded: small effects
- ERK42 activation [14]: greater with BDNF and NGF treatment than with the p75-binding compounds; also recorded: prolonged activation
- AKT activation [7, 16]: substantially greater response
- effect of p75NTR-deficiency on promotion of neuron survival by the substance [10]: partial responsiveness; also recorded: partially inhibits
- survival in p75NTR−/− cultures, comparison of treatments [10]: greater survival than NGF
- TrkB activation (Trk Y490 phosphorylation) [15]: robust Trk activation; also recorded: activated TrkB
- effect of Ab 9651 on promotion of neuron survival by the substance [11]: partially blocked; also recorded: partially inhibits
- survival versus CM in the presence of Ab 9651 [11]: significantly greater than CM+Ab 9651
